Results published in publication PMC11574021, “CEP192 localises mitotic Aurora-A activity by priming its interaction with TPX2” (The EMBO Journal, 2024).

Key:
Assay type in all cases: cell-based, Homo sapiens
[1] = system: Aurora-A-pT288 in U251 cells; assay: Western blot densitometry of Aurora-A-pT288, mitotic U251 cells; conditions: mitotic U251 (and RPE1) lysates, siRNA 48 h, in words
Method: For western blotting analysis of mitotic lysates, cells were synchronised in mitosis with 10 µM S-Trityl-L-cysteine (STLC, Bio-Techne, 2191-50), an Eg5 inhibitor, for 20 h prior to collecting by mitotic shake-off. For measuring monopolar spindle diameter and counting centriolar foci by immunofluorescence, cells were treated with 10 µM STLC for 1 h and 4 h prior to fixation, respectively.
(§1) As noted in the figures, the following drugs were incubated with cells for 30 min at 37 °C: Aurora-B-i ZM447439 2 µM [10 mM], PLK1-I BI2536 1 µM [10 mM] and Aurora-A-i MLN8237 [5 mM] was used at 250 and 500 nM in U251 and RPE1 cells, respectively. Drugs were resuspended in DMSO to the stock concentrations indicated in square brackets. BI2536 (HY-50698), MLN8237 (HY-10971) and ZM447439 (HY-10128) were all purchased from MedChemExpress. For western blotting, a 20-min pre-treatment with proteasome inhibitor (20 µM MG-132, MerckMillipore, 47490 [20 mM]) was required prior to the addition of DMSO control or kinase inhibitors. This prevented mitotic exit as a consequence of checkpoint override following Aurora-A and Aurora-B inhibitor addition.
Cells were lysed on ice for 30 min in lysis buffer (50 mM tris pH 8.0, 300 mM NaCl, 0.2%(v/v) NP-40, 10%(v/v) glycerol, protease inhibitor cocktail C, phosphatase inhibitor cocktail 3 (Sigma, 1:200 dilution), 100 nM okadaic acid (Enzo, ALX-350-003-C100)). Lysates were then centrifuged at 14,000 × g, 15 min, 4 °C, the supernatants were transferred to a fresh tube, and the pellet was discarded. Protein concentrations were measured by Bradford assay using Protein Assay Dye Reagent Concentrate (Bio-Rad Laboratories, 5000006). NuPage LDS sample buffer, supplemented with NuPAGE sample reducing agent (Invitrogen) were added prior to boiling for 10 min at 90 °C. […]
Densitometric quantification of western blots was also performed in ImageJ. Intensity was measured in a rectangular region of interest (ROI) around each band. […] An adjacent region was also measured to account for background intensity.

LATS2-pS83 in U251 cells = assay: Immunofluorescence, LATS2-pS83 spindle pole signal intensity, U251; conditions: for centrosomal LATS2-pS83 signal: U251, siRNA 48 h or Aurora-A inhibitor 30 min (250 nM), immunofluorescence
Method: as §1
(§2) siRNA depletion was carried out by reverse transfection using oligofectamine (Thermo Scientific, 12252011) and lipofectamine RNAiMax (Thermo Scientific, 13778075), according to the manufacturer’s instructions, for U251 and RPE1 cells, respectively. For immunofluorescence, 1 × 10^5 cells were seeded in six-well plates and simultaneously transfected with 60 pmol siRNA duplex and 3 µl transfection reagent diluted in 200 µl Opti-MEM serum-free medium. Growth medium was added to a final volume of 2 ml. For western blotting, 1 × 10^6 cells were seeded in 10 cm dishes and transfected with 300 pmol siRNA duplex and 15 µl transfection reagent diluted in 1000 µl Opti-MEM. Growth medium was added to a final volume of 10 ml. Cells were incubated with siRNA for 48 h prior to fixation or harvesting. As a negative control (siControl) Silencer select negative control No.1 siRNA was transfected as above. For TACC3 depletion, where two siRNA duplexes were used, 40 pmol of each was transfected per well.
For siRNA depletion, 1 × 10^5 cells were seeded in six-well plates and transfected as described above for 48 h prior to fixation. For all other experiments, 2.5 × 10^5 cells were seeded in six-well plates and grown for 24 h before fixation. All cells were grown on 12 mm diameter glass coverslips (VWR, 631–1577). Cells in Fig. EV4A were fixed using 4% (wt/v) paraformaldehyde (PFA) in PBS for 12 min, followed by 10 min quenching in 50 mM NH4Cl in PBS and 5 min of permeabilization with 0.2% (v/v) Triton X-100 in PBS, all at room temperature. For centriole staining in Fig. EV4E, cells were fixed in pre-chilled methanol for 10 min at −20 °C, incubated in PBS for 10 min and then 5 min in 0.5% Triton-X-100, 0.5% Tween, 0.05% SDS in PBS (v/v). To observe centromere and kinetochore staining in Fig. 7C and Appendix Fig. S8A, cells were fixed with PTEMF buffer (20 mM PIPES pH 6.8, 0.2% (v/v) Triton X-100, 10 mM EGTA, 1 mM MgCl2, 4% PFA (wt/v) in PBS) for 12 min at room temperature. […]

[2] = system: PPP1CA-pT320, PRC1-pT481 and Histone-H3-pS10 in U251 cells; assay: Western blot, mitotic phosphorylations (PPP1CA-pT320, PRC1-pT481, Histone-H3-pS10), asynchronous U251; conditions: asynchronous U251, siRNA 48 h
Method: Cells were lysed on ice for 30 min in lysis buffer (50 mM tris pH 8.0, 300 mM NaCl, 0.2%(v/v) NP-40, 10%(v/v) glycerol, protease inhibitor cocktail C, phosphatase inhibitor cocktail 3 (Sigma, 1:200 dilution), 100 nM okadaic acid (Enzo, ALX-350-003-C100)). Lysates were then centrifuged at 14,000 × g, 15 min, 4 °C, the supernatants were transferred to a fresh tube, and the pellet was discarded. Protein concentrations were measured by Bradford assay using Protein Assay Dye Reagent Concentrate (Bio-Rad Laboratories, 5000006). NuPage LDS sample buffer, supplemented with NuPAGE sample reducing agent (Invitrogen) were added prior to boiling for 10 min at 90 °C. Equal amounts of protein, between 8–20 µg/lane, were loaded into pre-cast 4–12% Bis-Tris gels (Invitrogen, NP0322BOX) and proteins separated in 1x MOPS buffer (Invitrogen) and transferred to nitrocellulose membrane (0.45 µM). Nitrocellulose was then blocked in 5% milk (wt/v) in TBS, 0.1% Tween (v/v) (TBST) for 1 h. Primary and secondary antibodies were diluted in 5% milk, TBST and incubated overnight at 4 °C or for 1 h at room temperature, respectively. Species-specific secondary antibodies conjugated to horseradish peroxidase (HRP) were used (anti-Mouse, Cytiva NA931V; anti-Rabbit, Cytiva NA934; anti-Sheep, Jackson 713-035-003). Membranes were washed for 1 h in TBST, changing the buffer five times, after each antibody incubation.
as §2, with “Growth medium was added to a final volume of 10 ml. Cells were incubated with siRNA for 48 h prior to fixation or harvesting. As a negative control (siControl) Silencer select negative control No.1 siRNA was transfected as above. For TACC3 depletion, where two siRNA duplexes were used, 40 pmol of each was transfected per well.” left out

[3] = system: TACC3 in RPE1 p53-/- cells; assay: Immunofluorescence, TACC3 spindle signal intensity, RPE1 p53-/-; conditions: Aurora-A inhibitor 30 min or siRNA 48 h
Method: as §1
siRNA depletion was carried out by reverse transfection using oligofectamine (Thermo Scientific, 12252011) and lipofectamine RNAiMax (Thermo Scientific, 13778075), according to the manufacturer’s instructions, for U251 and RPE1 cells, respectively. For immunofluorescence, 1 × 10^5 cells were seeded in six-well plates and simultaneously transfected with 60 pmol siRNA duplex and 3 µl transfection reagent diluted in 200 µl Opti-MEM serum-free medium. Growth medium was added to a final volume of 2 ml. […]

Compound	activation loop phosphorylation (pT288) of Aurora-A in mitotic cell lysates [1]	centrosomal LATS2-pS83 signal (LATS2-pS83 in U251 cells)	mitotic phosphorylations (PPP1CA-pT320, PRC1-pT481, Histone-H3-pS10) [2]	spindle recruitment of TACC3 [3]	reduction of p-LATS2 (pS83) intensity (LATS2-pS83 in U251 cells; U251, Aurora-A inhibition 30 min, authors' response to referees)
5′-CAAACAACUUGGAAAUCGAtt-3′ [siCEP192]	comparable reduction in pT288 Aurora-A levels to that of TPX2	reducing LATS2 phosphorylation	increased levels of mitotic phosphorylations		
5′-CGGUAGUGAUAAAAGCUCAtt-3′ [siTPX2]	strongly reduced activation loop phosphorylation (pT288) of Aurora-A	reducing LATS2 phosphorylation	increased levels of mitotic phosphorylations	fully prevented both spindle recruitment of TACC3	
COc1cc(Nc2ncc3c(n2)-c2ccc(Cl)cc2C(c2c(F)cccc2OC)=NC3)ccc1C(=O)O [Alisertib]		obliterated		abrogated spindle recruitment of TACC3	> 80%
